Results published in US20190134005A1 (BioMarin Pharmaceutical Inc., priority 2016, published 2019).

biological target: T1, human CGT (Homo sapiens, UniProt Q16880); test: Assay 1: CGT Enzymatic Assay (RapidFire/MS/MS, 0.01% Tween 80); format: biochemical; conditions: Table 1, Compounds of Formula (I) and Formula (II); CGT enzymatic assay; read-out: IC50
T1 sequence (Q16880 21-541): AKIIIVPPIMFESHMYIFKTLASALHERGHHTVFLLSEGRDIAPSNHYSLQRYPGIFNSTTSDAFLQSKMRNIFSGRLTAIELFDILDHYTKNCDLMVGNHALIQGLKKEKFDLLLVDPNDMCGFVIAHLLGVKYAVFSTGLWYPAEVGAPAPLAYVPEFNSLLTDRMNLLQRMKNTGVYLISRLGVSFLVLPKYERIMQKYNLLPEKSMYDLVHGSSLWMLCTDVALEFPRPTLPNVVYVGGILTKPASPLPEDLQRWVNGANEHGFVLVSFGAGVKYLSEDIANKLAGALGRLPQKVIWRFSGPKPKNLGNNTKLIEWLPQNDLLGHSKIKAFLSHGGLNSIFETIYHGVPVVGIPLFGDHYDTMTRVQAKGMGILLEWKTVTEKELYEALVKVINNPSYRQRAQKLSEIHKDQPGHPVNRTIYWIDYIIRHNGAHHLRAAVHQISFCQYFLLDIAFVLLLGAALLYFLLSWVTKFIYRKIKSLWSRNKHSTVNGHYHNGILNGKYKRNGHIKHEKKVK

With O=C1N(c2ccc(Cl)cc2)CC(O)(c2cccc(F)c2)N1c1ccc(Cl)cc1 (centres unmarked) [Compound 64, 1,3-bis(4-chlorophenyl)-4-(3-fluorophenyl)-4-hydroxyimidazolidin-2-one] as the compound, how does the IC50 read?
The IC50 was 1000 to 10000 nM.

For O=c1n(-c2ccc(Cl)cc2)c(-c2cccc(OC(F)(F)F)c2)c(C2CC2)n1-c1ccc(Cl)cc1 [Compound 65, 1,3-bis(4-chlorophenyl)-4-cyclopropyl-5-(3-(trifluoromethoxy)phenyl)-1,3-dihydro-2H-imidazol-2-one], which IC50 is on record?
The IC50 was under 1000 nM.

With CC1N(c2ccc(Br)cc2)C(=O)N(c2ccc(Br)cc2)C1(O)c1cccc(OC(F)(F)F)c1 (centres unmarked) [Compound 66, 1,3-bis(4-bromophenyl)-4-hydroxy-5-methyl-4-(3-(trifluoromethoxy)phenyl)imidazolidin-2-one] as the compound, how does the IC50 read?
The IC50 was under 1000 nM.

Which IC50 does the source give for C[C@@H]1N(c2ccc(Br)cc2)C(=O)N(c2ccc(Br)cc2)C1(O)c1cccc(OC(F)(F)F)c1 (stereo partly drawn) [Compound 66-1, (5S)-1,3-bis(4-bromophenyl)-4-hydroxy-5-methyl-4-(3-(trifluoromethoxy)phenyl)imidazolidin-2-one] here?
Its IC50 is under 1000 nM.

For C[C@H]1N(c2ccc(Br)cc2)C(=O)N(c2ccc(Br)cc2)C1(O)c1cccc(OC(F)(F)F)c1 (stereo partly drawn) [Compound 66-2, (5R)-1,3-bis(4-bromophenyl)-4-hydroxy-5-methyl-4-(3-(trifluoromethoxy)phenyl)imidazolidin-2-one], which IC50 is on record?
Its IC50 is under 1000 nM.

For CCC1N(c2ccc(Br)cc2)C(=O)N(c2ccc(Br)cc2)C1(O)c1cccc(C(F)(F)F)c1 (centres unmarked) [Compound 67, 1,3-bis(4-bromophenyl)-5-ethyl-4-hydroxy-4-(3-(trifluoromethyl)phenyl)imidazolidin-2-one], which IC50 is on record?
The IC50 was under 1000 nM.

Which IC50 does the source give for CC[C@@H]1N(c2ccc(Br)cc2)C(=O)N(c2ccc(Br)cc2)C1(O)c1cccc(C(F)(F)F)c1 (stereo partly drawn) [Compound 67-1, (5S)-1,3-bis(4-bromophenyl)-5-ethyl-4-hydroxy-4-(3-(trifluoromethyl)phenyl)imidazolidin-2-one] here?
The IC50 was under 1000 nM.

How did the IC50 turn out when CC[C@H]1N(c2ccc(Br)cc2)C(=O)N(c2ccc(Br)cc2)C1(O)c1cccc(C(F)(F)F)c1 (stereo partly drawn) [Compound 67-2, (5R)-1,3-bis(4-bromophenyl)-5-ethyl-4-hydroxy-4-(3-(trifluoromethyl)phenyl)imidazolidin-2-one] was run?
Its IC50 is under 1000 nM.

With CCc1cccc(C2(O)C(C)N(c3ccc(Br)cc3)C(=O)N2c2ccc(Br)cc2)c1 (centres unmarked) [Compound 68, 1,3-bis(4-bromophenyl)-4-(3-ethylphenyl)-4-hydroxy-5-methylimidazolidin-2-one] as the compound, how does the IC50 read?
The IC50 was under 1000 nM.

Which IC50 does the source give for CCc1cccc(C2(O)[C@H](C)N(c3ccc(Br)cc3)C(=O)N2c2ccc(Br)cc2)c1 (stereo partly drawn) [Compound 68-1, (5S)-1,3-bis(4-bromophenyl)-4-(3-ethylphenyl)-4-hydroxy-5-methylimidazolidin-2-one] here?
The IC50 was under 1000 nM.

With CCc1cccc(C2(O)[C@@H](C)N(c3ccc(Br)cc3)C(=O)N2c2ccc(Br)cc2)c1 (stereo partly drawn) [Compound 68-2, (5R)-1,3-bis(4-bromophenyl)-4-(3-ethylphenyl)-4-hydroxy-5-methylimidazolidin-2-one] as the compound, how does the IC50 read?
Its IC50 is under 1000 nM.

With CCc1cccc(C2(O)C(C)N(c3ccc(Cl)cc3)C(=O)N2c2ccc(Cl)cc2)c1 (centres unmarked) [Compound 69, 1,3-bis(4-chlorophenyl)-4-(3-ethylphenyl)-4-hydroxy-5-methylimidazolidin-2-one] as the compound, how does the IC50 read?
Its IC50 is under 1000 nM.

How did the IC50 turn out when CCc1cccc(C2(O)[C@H](C)N(c3ccc(Cl)cc3)C(=O)N2c2ccc(Cl)cc2)c1 (stereo partly drawn) [Compound 69-1, (5S)-1,3-bis(4-chlorophenyl)-4-(3-ethylphenyl)-4-hydroxy-5-methylimidazolidin-2-one] was run?
Its IC50 is under 1000 nM.

Which IC50 does the source give for CCc1cccc(C2(O)[C@@H](C)N(c3ccc(Cl)cc3)C(=O)N2c2ccc(Cl)cc2)c1 (stereo partly drawn) [Compound 69-2, (5R)-1,3-bis(4-chlorophenyl)-4-(3-ethylphenyl)-4-hydroxy-5-methylimidazolidin-2-one] here?
Its IC50 is under 1000 nM.

With O=c1n(-c2ccc(Cl)cc2)c(-c2cccc(OC(F)F)c2)c(C2CC2)n1-c1ccc(Cl)cc1 [Compound 70, 1,3-bis(4-chlorophenyl)-4-cyclopropyl-5-(3-(difluoromethoxy)phenyl)-1,3-dihydro-2H-imidazol-2-one] as the compound, how does the IC50 read?
The IC50 was under 1000 nM.

Which IC50 does the source give for COc1cccc(C2(O)[C@H](C)N(c3ccc(Br)cc3)C(=O)N2c2ccc(Br)cc2)c1 (stereo partly drawn) [Compound 71-1, (5S)-1,3-bis(4-bromophenyl)-4-hydroxy-4-(3-methoxyphenyl)-5-methylimidazolidin-2-one] here?
The IC50 was under 1000 nM.

How did the IC50 turn out when COc1cccc(C2(O)[C@@H](C)N(c3ccc(Br)cc3)C(=O)N2c2ccc(Br)cc2)c1 (stereo partly drawn) [Compound 71-2, (5R)-1,3-bis(4-bromophenyl)-4-hydroxy-4-(3-methoxyphenyl)-5-methylimidazolidin-2-one] was run?
The IC50 was under 1000 nM.

N#Cc1cccc(C2(O)N(c3ccc(Cl)cc3)C(=O)N(c3ccc(Cl)cc3)C23CCC3)c1 (centres unmarked) [Compound 72, 3-(5,7-bis(4-chlorophenyl)-8-hydroxy-6-oxo-5,7-diazaspiro[3.4]octan-8-yl)benzonitrile] was tested. Which IC50 did it give?
Its IC50 is under 1000 nM.

How did the IC50 turn out when CC1N(c2ccc(Br)cc2)C(=O)N(c2ccc(Br)cc2)C1(O)c1cccc(Cl)c1 (centres unmarked) [Compound 73, 1,3-bis(4-bromophenyl)-4-(3-chlorophenyl)-4-hydroxy-5-methylimidazolidin-2-one] was run?
Its IC50 is under 1000 nM.

How did the IC50 turn out when C[C@@H]1N(c2ccc(Br)cc2)C(=O)N(c2ccc(Br)cc2)C1(O)c1cccc(Cl)c1 (stereo partly drawn) [Compound 73-1, (5S)-1,3-bis(4-bromophenyl)-4-(3-chlorophenyl)-4-hydroxy-5-methylimidazolidin-2-one] was run?
Its IC50 is under 1000 nM.

For C[C@H]1N(c2ccc(Br)cc2)C(=O)N(c2ccc(Br)cc2)C1(O)c1cccc(Cl)c1 (stereo partly drawn) [Compound 73-2, (5R)-1,3-bis(4-bromophenyl)-4-(3-chlorophenyl)-4-hydroxy-5-methylimidazolidin-2-one], which IC50 is on record?
Its IC50 is under 1000 nM.

Which IC50 does the source give for C[C@@H]1N(c2ccc(Br)cc2)C(=O)N(c2ccc(Br)cc2)C1(O)c1cccc(C(F)(F)F)c1 (stereo partly drawn) [Compound 74-1, (5S)-1,3-bis(4-bromophenyl)-4-hydroxy-5-methyl-4-(3-(trifluoromethyl)phenyl)imidazolidin-2-one] here?
Its IC50 is under 1000 nM.

How did the IC50 turn out when C[C@H]1N(c2ccc(Br)cc2)C(=O)N(c2ccc(Br)cc2)C1(O)c1cccc(C(F)(F)F)c1 (stereo partly drawn) [Compound 74-2, (5R)-1,3-bis(4-bromophenyl)-4-hydroxy-5-methyl-4-(3-(trifluoromethyl)phenyl)imidazolidin-2-one] was run?
Its IC50 is under 1000 nM.

For CC[C@@H]1N(c2ccc(Cl)cc2)C(=O)N(c2ccc(Cl)cc2)C1(O)c1cccc(C)c1 (stereo partly drawn) [Compound 75-1, (5S)-1,3-bis(4-chlorophenyl)-5-ethyl-4-hydroxy-4-(m-tolyl)imidazolidin-2-one], which IC50 is on record?
The IC50 was under 1000 nM.

How did the IC50 turn out when CC[C@H]1N(c2ccc(Cl)cc2)C(=O)N(c2ccc(Cl)cc2)C1(O)c1cccc(C)c1 (stereo partly drawn) [Compound 75-2, (5R)-1,3-bis(4-chlorophenyl)-5-ethyl-4-hydroxy-4-(m-tolyl)imidazolidin-2-one] was run?
The IC50 was under 1000 nM.

CC[C@@H]1N(c2ccc(Br)cc2)C(=O)N(c2ccc(Br)cc2)C1(O)c1cccc(C)c1 (stereo partly drawn) [Compound 76-1, (5S)-1,3-bis(4-bromophenyl)-5-ethyl-4-hydroxy-4-(m-tolyl)imidazolidin-2-one] was tested. Which IC50 did it give?
Its IC50 is under 1000 nM.

How did the IC50 turn out when CC[C@H]1N(c2ccc(Br)cc2)C(=O)N(c2ccc(Br)cc2)C1(O)c1cccc(C)c1 (stereo partly drawn) [Compound 76-2, (5R)-1,3-bis(4-bromophenyl)-5-ethyl-4-hydroxy-4-(m-tolyl)imidazolidin-2-one] was run?
The IC50 was under 1000 nM.

For C[C@H]1N(c2ccc(Cl)cc2)C(=O)N(c2ccc(Cl)cc2)C1(O)c1cccc(C(F)(F)F)c1 (stereo partly drawn) [Compound 77-2, (5R)-1,3-bis(4-chlorophenyl)-4-hydroxy-5-methyl-4-(3-(trifluoromethyl)phenyl)imidazolidin-2-one], which IC50 is on record?
Its IC50 is under 1000 nM.

Which IC50 does the source give for O=C1N(c2ccc(Cl)cc2)CC(O)(c2cccc(C3CC3)c2)N1c1ccc(Cl)cc1 (centres unmarked) [Compound 78, 1,3-bis(4-chlorophenyl)-4-(3-cyclopropylphenyl)-4-hydroxyimidazolidin-2-one] here?
The IC50 was 1000 to 10000 nM.

With CCOc1cccc(C2(O)CN(c3ccc(Br)cc3)C(=O)N2c2ccc(Br)cc2)c1 (centres unmarked) [Compound 79, 1,3-bis(4-bromophenyl)-4-(3-ethoxyphenyl)-4-hydroxyimidazolidin-2-one] as the compound, how does the IC50 read?
The IC50 was 1000 to 10000 nM.

CC[C@@H]1N(c2ccc(Cl)cc2)C(=O)N(c2ccc(Cl)cc2)C1(O)c1cccc(C(F)(F)F)c1 (stereo partly drawn) [Compound 80-1, (5S)-1,3-bis(4-chlorophenyl)-5-ethyl-4-hydroxy-4-(3-(trifluoromethyl)phenyl)imidazolidin-2-one] was tested. Which IC50 did it give?
Its IC50 is under 1000 nM.

Which IC50 does the source give for CC[C@H]1N(c2ccc(Cl)cc2)C(=O)N(c2ccc(Cl)cc2)C1(O)c1cccc(C(F)(F)F)c1 (stereo partly drawn) [Compound 80-2, (5R)-1,3-bis(4-chlorophenyl)-5-ethyl-4-hydroxy-4-(3-(trifluoromethyl)phenyl)imidazolidin-2-one] here?
The IC50 was under 1000 nM.

With CCC1N(c2ccc(Cl)cc2)C(=O)N(c2ccc(Cl)cc2)C1(O)c1cccc(Cl)c1 (centres unmarked) [Compound 81, 4-(3-chlorophenyl)-1,3-bis(4-chlorophenyl)-5-ethyl-4-hydroxyimidazolidin-2-one] as the compound, how does the IC50 read?
The IC50 was under 1000 nM.

For CC[C@@H]1N(c2ccc(Cl)cc2)C(=O)N(c2ccc(Cl)cc2)C1(O)c1cccc(Cl)c1 (stereo partly drawn) [Compound 81-1, (5S)-4-(3-chlorophenyl)-1,3-bis(4-chlorophenyl)-5-ethyl-4-hydroxyimidazolidin-2-one], which IC50 is on record?
Its IC50 is under 1000 nM.

With CC[C@H]1N(c2ccc(Cl)cc2)C(=O)N(c2ccc(Cl)cc2)C1(O)c1cccc(Cl)c1 (stereo partly drawn) [Compound 81-2, (5R)-4-(3-chlorophenyl)-1,3-bis(4-chlorophenyl)-5-ethyl-4-hydroxyimidazolidin-2-one] as the compound, how does the IC50 read?
The IC50 was under 1000 nM.
